According to US20160243190A1, “DOSES AND METHODS FOR ADM[…]” (THERAVANCE BIOPHARMA A[…], LLC, priority 2015, published 2016):
Where two headings read alike, the source gives them in different places.

How the values were obtained:
[1] = Logistic regression of outcomes as a function of steady state exposure (AUC0-24h) in Phase 3 subjects; assay type: in vivo, human
Procedure: Logistic regression analysis was used to parameterize the relationship between exposure (AUC0-24h) and the probability of 28-day all-cause mortality, AKI (defined as a 50% increase or greater than 0.5 mg/dL increase in serum creatinine) and clinical response at test of cure (TOC) for all Phase 3 subjects. The analysis was repeated for the individual HABP/VABP and cSSSI subpopulations.
Logistic regression analyses were conducted on the Phase 3 dataset using individually predicted exposure (AUC0-24h) and the outcomes of interest (28-day all-cause mortality, AKI, and clinical response at TOC). The analysis was performed using the generalized linear model function in R specifying a binomial variance and the logit link function.
The output produced for each logistic regression analysis includes indices of fit (i.e., null and deviance residuals, Akaike's information criterion and likelihood ratio test statistics to provide an assessment of model improvement as additional parameters are included in the model).

[2] = Individually predicted steady state exposure in Phase 3 subjects with PK samples; assay type: in vivo; conditions: human, plasma, intravenous
Procedure: This analysis was designed to describe the relationship between exposure and response in patients treated with telavancin.
The predicted telavancin PK profiles for each subject were generated using the individually estimated PK parameters determined during the population PK analysis based on the administered dose as recorded in the dataset. The individually estimated PK parameters for each subject were determined based upon the specific intra- and inter-individual errors determined using nonlinear mixed effect analysis.

[3] = Observed outcomes in Phase 3 HABP/VABP and cSSSI studies 0015, 0017, 0018, 0019; assay type: in vivo, human
Excerpt: The data for the simulations was based on 1771 subjects from Studies 0015, 0017, 0018 and 0019.
The data for the analysis was based upon 579 subjects from Studies 0015, 0017, 0018 and 0019. […]

[4] = CART (classification and regression tree) analysis of exposure and 28-day mortality; assay type: in vivo, human; conditions: HABP/VABP subjects with renal impairment
Procedure: Values were determined for each simulated clinical trial (n=100), and presented as a mean and standard deviation.
The logistic regression analysis in HABP/VABP subjects with impaired renal function (CrCl≦50 mL/min) is consistent with the results of the CART analysis in HABP/VABP subjects with renal impairment.

[5] = Population PK model for telavancin from Phase 1, 2 and 3 plasma concentrations; assay type: in vivo; conditions: both sexes, human, intravenous, final combined population PK model, read-out: CL, population estimate ± SE (converted)
[6] = Phase 3 HABP/VABP subjects with PK samples, n=196
[7] = Phase 3 Total with PK samples, n=579
[8] = Phase 3 all-treated HABP/VABP subjects, n=750
[9] = Phase 3 all-treated Total, n=1771
[10] = Phase 3 all-treated cSSSI subjects, n=1021
[11] = Phase 3 cSSSI subjects with PK samples, n=383

For CCCCCCCCCCNCCNC1(C)CC(OC2C(Oc3c4cc5cc3Oc3ccc(cc3Cl)[C@@H](O)[C@@H](NC(=O)[C@@H](CC(C)C)NC)C(=O)N[C@@H](CC(N)=O)C(=O)N[C@H]5C(=O)N[C@H]3C(=O)N[C@H](C(=O)N[C@H](C(=O)O)c5cc(O)c(CNCP(=O)(O)O)c(O)c5-c5cc3ccc5O)[C@H](O)c3ccc(c(Cl)c3)O4)OC(CO)C(O)C2O)OC(C)C1O (stereo partly shown) [telavancin, N^3″-[2-(decylamino)ethyl]-29-[[(phosphonomethyl)amino]methyl]vancomycin], the “Steady State AUC0-24 h coefficient, Estimate; clinical response at TOC” value ([1]; all HABP/VABP subjects) was 4.50e−4, the “Steady State AUC0-24 h coefficient, Pr(>|z|); clinical response at TOC” value ([1]; all HABP/VABP subjects) was 0.495 and the “Steady State AUC0-24 h coefficient, Estimate; clinical response at TOC” value ([1]; all Phase 3 subjects) was 4.29e−3. For the same molecule, the “Steady State AUC0-24 h coefficient, Pr(>|z|); clinical response at TOC” value ([1]; all Phase 3 subjects) was 0.368, the “Steady State AUC0-24 h coefficient, Estimate; clinical response at TOC” value ([1]; all cSSSI subjects) was 4.11e−4 and the “Steady State AUC0-24 h coefficient, Pr(>|z|); clinical response at TOC” value ([1]; all cSSSI subjects) was 0.557. For the same molecule, the AUC0-24 at steady state ([2]; HABP/VABP subjects, n=196, read-out: AUC0-24, mean ± SD (range)) was 670 ± 231 µg·h/mL, the AUC0-24 at steady state ([2]; Total, n=579, read-out: AUC0-24, mean ± SD (range)) was 671 ± 214 µg·h/mL and the AUC0-24 at steady state ([2]; cSSSI subjects, n=383, read-out: AUC0-24, mean ± SD (range)) was 671 ± 206 µg·h/mL. The “AKI, Y (number of subjects)” value [3, 6] was “Y = 39, N = 157”, the “CURE (number of subjects)” value [3, 6] was “CURE = 127,” and the “MORTALITY, Y (number of subjects)” value [3, 6] was “Y = 45, N = 151”. For the same molecule, the “AKI, Y (number of subjects)” value [3, 7] was “Y = 78, N = 500,”, the “CURE (number of subjects)” value [3, 7] was “CURE = 449,” and the “MORTALITY, Y (number of subjects)” value [3, 7] was “Y = 46, N = 533”. For the same molecule, the “AKI, Y (number of subjects)” value [3, 8] was “Y = 171, N = 542,”, the “CURE (number of subjects)” value [3, 8] was “CURE = 442,” and the “MORTALITY, Y (number of subjects)” value [3, 8] was “Y = 178, N = 572,”. The “AKI, Y (number of subjects)” value [3, 9] was “Y = 291, N = 1413,”, the “CURE (number of subjects)” value [3, 9] was “CURE = 1230,” and the “MORTALITY, Y (number of subjects)” value [3, 9] was “Y = 187, N = 1584”. For the same molecule, the “AKI, Y (number of subjects)” value [3, 10] was “Y = 120, N = 871,”, the “CURE (number of subjects)” value [3, 10] was “CURE = 788,” and the “MORTALITY, Y (number of subjects)” value [3, 10] was “Y = 9, N = 1012,”. For the same molecule, the “AKI, Y (number of subjects)” value [3, 11] was “Y = 39, N = 343,”, the “CURE (number of subjects)” value [3, 11] was “CURE = 322,” and the “predicted exposure with greater likelihood of 28-day mortality (CART cutpoint)” value [4] was “greater than 767 μg·hr/mL”. For the same molecule, the clearance [5] was 19.2 mL/min.
